# Reference: paper PMC2635417 (The Journal of endocrinology, 2008)
# Entries after “also recorded” stand apart in the source; their conditions may differ. Like-named read-outs stand apart in the source and are kept apart here. No end group written: not given here.
# Legend:
# [1] = system: CRH receptors (CRH-R1 and CRH-R2) in αT3-1 cells; type: cell-based, murine; settings: 1 mM IBMX, p<0.05; for inhibition of CRH-mediated cAMP increase: 10 μM α-helical CRH 9–41 or 1 μM astressin with 100 nM CRH, 3 min; for inhibition of UCN1-mediated cAMP increase: 10 μM α-helical CRH 9–41 or 1 μM astressin with 100 nM UCN1, 3 min
# CRH-R2 in αT3-1 cells = test: Antisauvagine; type: cell-based, murine; settings: 1 μM antisauvagine, 15 min pretreatment; for effect of antisauvagine alone on cAMP: versus vehicle
# αT3-1 cells [2] = test: Total inositol phosphate levels; type: cell-based, murine; settings: treatment alone; preliminary studies, unpublished data, A. Seasholtz
# [3] = system: PACAP receptor in LβT2 gonadotrope like cell line; settings: LβT2 cells; ref Lariviere, et al. 2008; cited from earlier work
# αT3-1 cells [4] = settings: cited from earlier work
# α-subunit in αT3-1 cells = settings: ref Attardi and Winters 1998, Burrin, et al. 1998, Schomerus, et al. 1994, Tsujii, et al. 1995; cited from earlier work
substance,measurement,setting,value
alpha-helical CRH (9–41) [α-helical CRH 9–41],inhibition of CRH-mediated cAMP increase,[1],reduced cAMP values to vehicle-treated levels
same,inhibition of CRH-mediated cAMP increase,[1]; listed as α-helical CRH 9-41,completely blocked; also recorded: completely inhibited
same,inhibition of UCN1-mediated cAMP increase,[1],reduced cAMP values to vehicle-treated levels
same,inhibition of UCN1-mediated cAMP increase,[1]; listed as α-helical CRH 9-41,completely blocked; also recorded: completely inhibited
antisauvagine,repression of UCN1-mediated cAMP increase,"CRH-R2 in αT3-1 cells; then 100 nM UCN1 3 min, partial block",75%
same,inhibition of UCN3-mediated cAMP increase,"CRH-R2 in αT3-1 cells; then 100 nM UCN3 3 min, p<0.05",completely blocked
same,effect of antisauvagine alone on cAMP,CRH-R2 in αT3-1 cells,did not significantly differ from vehicle
same,effect of antisauvagine alone on cAMP,CRH-R2 in αT3-1 cells; listed as AS,no significant difference
astressin,inhibition of CRH-mediated cAMP increase,[1],completely blocked; also recorded: complete suppression; also recorded: completely inhibited; also recorded: significant repressions
same,inhibition of UCN1-mediated cAMP increase,[1],completely blocked; also recorded: complete suppression; also recorded: completely inhibited; also recorded: significant repressions
"gonadotropin- releasing hormone (QHWSYGLRPG; Gonadoliberin-1; UniProt P01148 24-33, looked up) [GnRH]",effect on total inositol phosphate levels,αT3-1 cells [2],dramatically increases total inositol phosphate levels
same,PACAP receptor phosphorylation by PKC,[3],stimulating PACAP receptor phosphorylation by PKC
same,effect on cAMP levels,"αT3-1 cells [4]; alone, ref McArdle and Counis 1996, McArdle, et al. 1994",does not alter cAMP levels
"pituitary adenylyl cyclase activating polypeptide (HSDGIFTDSYSRYRKQMAVKKYLAAVLGKRYKQRVKNK-NH2; ends and bridges not checked; UniProt P18509 132-169, looked up) [PACAP]",effect on cAMP levels,"αT3-1 cells [4]; ref Attardi and Winters 1998, Burrin, et al. 1998, Schomerus, et al. 1994, Tsujii, et al. 1995",increase intracellular cAMP levels
same,α-subunit transcriptional activity / mRNA / expression,α-subunit in αT3-1 cells,increased transcriptional activity and steady state levels of α-subunit mRNA; also recorded: increased α-subunit expression
